{
  "source": "ChEMBL document CHEMBL1201862",
  "about": "“PubChem BioAssay data set” (2004)",
  "assay_in_all_cases": "NCI anticancer screen, dose series, 48 h",
  "key": {"[1]": {"tested_on": "786-0"}, "[2]": {"tested_on": "A498"}, "[3]": {"tested_on": "A549"}, "[4]": {"tested_on": "ACHN"}, "[5]": {"tested_on": "CAKI-1"}, "[6]": {"tested_on": "CCRF-CEM"}, "[7]": {"tested_on": "COLO 205"}, "[8]": {"tested_on": "DLD-1"}, "[9]": {"tested_on": "DMS-114"}, "[10]": {"tested_on": "DMS-273"}, "[11]": {"tested_on": "EKVX"}, "[12]": {"tested_on": "HCC 2998"}, "[13]": {"tested_on": "HCT-116"}, "[14]": {"tested_on": "HCT-15"}, "[15]": {"tested_on": "HL-60"}, "[16]": {"tested_on": "HOP-18"}, "[17]": {"tested_on": "HOP-62"}, "[18]": {"tested_on": "HOP-92"}, "[19]": {"tested_on": "HT-29"}, "[20]": {"tested_on": "IGROV-1"}, "[21]": {"tested_on": "K562"}, "[22]": {"tested_on": "KM-20L2"}, "[23]": {"tested_on": "KM12"}, "[24]": {"tested_on": "LOX IMVI"}, "[25]": {"tested_on": "LXFL 529"}, "[26]": {"tested_on": "M14"}, "[27]": {"tested_on": "M19-MEL"}, "[28]": {"tested_on": "MOLT-4"}, "[29]": {"tested_on": "Malme-3M"}, "[30]": {"tested_on": "NCI-H226"}, "[31]": {"tested_on": "NCI-H23"}, "[32]": {"tested_on": "NCI-H460"}, "[33]": {"tested_on": "NCI-H522"}, "[34]": {"tested_on": "OVCAR-3"}, "[35]": {"tested_on": "OVCAR-4"}, "[36]": {"tested_on": "OVCAR-5"}, "[37]": {"tested_on": "OVCAR-8"}, "[38]": {"tested_on": "RPMI-8226"}, "[39]": {"tested_on": "RXF 393"}, "[40]": {"tested_on": "RXF 631"}, "[41]": {"tested_on": "SF-268"}, "[42]": {"tested_on": "SF-295"}, "[43]": {"tested_on": "SF-539"}, "[44]": {"tested_on": "SK-MEL-28"}, "[45]": {"tested_on": "SK-MEL-2"}, "[46]": {"tested_on": "SK-MEL-5"}, "[47]": {"tested_on": "SK-OV-3"}, "[48]": {"tested_on": "SN12C"}, "[49]": {"tested_on": "SNB-19"}, "[50]": {"tested_on": "SNB-75"}, "[51]": {"tested_on": "SNB-78"}, "[52]": {"tested_on": "SR"}, "[53]": {"tested_on": "SW-620"}, "[54]": {"tested_on": "TK-10"}, "[55]": {"tested_on": "U-251"}, "[56]": {"tested_on": "UACC-257"}, "[57]": {"tested_on": "UACC-62"}, "[58]": {"tested_on": "UO-31"}, "[59]": {"tested_on": "XF498"}},
  "note": "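Assay format: 96-well plates, 48-hour exposure. GI50: concentration for 50% inhibition of growth.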 Active and inactive are the calls of the source. No stated cut-off is given here; in the data, active = GI50 up to about 1.1 µM and inactive = higher.",
  "data": [
    {"smiles": "Cc1c2ccncc2c(C)c2c1[nH]c1ccc(Oc3ccccc3)cc12", "values": [
      {"measurement": "GI50", "setting": "[1]", "result": "1780 nM (inactive)"},
      {"measurement": "GI50", "setting": "[2]", "result": "5620 nM (inactive)"},
      {"measurement": "GI50", "setting": "[3]", "result": "2250 nM (inactive)"},
      {"measurement": "GI50", "setting": "[4]", "result": "3110 nM (inactive)"},
      {"measurement": "GI50", "setting": "[5]", "result": "3610 nM (inactive)"},
      {"measurement": "GI50", "setting": "[6]", "result": "2170 nM (inactive)"},
      {"measurement": "GI50", "setting": "[7]", "result": "2520 nM (inactive)"},
      {"measurement": "GI50", "setting": "[8]", "result": "2370 nM (inactive)"},
      {"measurement": "GI50", "setting": "[9]", "result": "2300 nM (inactive)"},
      {"measurement": "GI50", "setting": "[10]", "result": "1760 nM (inactive)"},
      {"measurement": "GI50", "setting": "[11]", "result": "5820 nM (inactive)"},
      {"measurement": "GI50", "setting": "[12]", "result": "1940 nM (inactive)"},
      {"measurement": "GI50", "setting": "[13]", "result": "2560 nM (inactive)"},
      {"measurement": "GI50", "setting": "[14]", "result": 1440, "unit": "nM"},
      {"measurement": "GI50", "setting": "[15]", "result": "1850 nM (inactive)"},
      {"measurement": "GI50", "setting": "[16]", "result": "6040 nM (inactive)"},
      {"measurement": "GI50", "setting": "[17]", "result": "1960 nM (inactive)"},
      {"measurement": "GI50", "setting": "[18]", "result": "6050 nM (inactive)"},
      {"measurement": "GI50", "setting": "[19]", "result": "1790 nM (inactive)"},
      {"measurement": "GI50", "setting": "[20]", "result": "4130 nM (inactive)"},
      {"measurement": "GI50", "setting": "[21]", "result": "1920 nM (inactive)"},
      {"measurement": "GI50", "setting": "[22]", "result": "1870 nM (inactive)"},
      {"measurement": "GI50", "setting": "[23]", "result": "2600 nM (inactive)"},
      {"measurement": "GI50", "setting": "[24]", "result": "1930 nM (inactive)"},
      {"measurement": "GI50", "setting": "[25]", "result": "2040 nM (inactive)"},
      {"measurement": "GI50", "setting": "[26]", "result": "1820 nM (inactive)"},
      {"measurement": "GI50", "setting": "[27]", "result": "2430 nM (inactive)"},
      {"measurement": "GI50", "setting": "[28]", "result": "2150 nM (inactive)"},
      {"measurement": "GI50", "setting": "[29]", "result": "1790 nM (inactive)"},
      {"measurement": "GI50", "setting": "[30]", "result": "14300 nM (inactive)"},
      {"measurement": "GI50", "setting": "[31]", "result": "11600 nM (inactive)"},
      {"measurement": "GI50", "setting": "[32]", "result": "1950 nM (inactive)"},
      {"measurement": "GI50", "setting": "[33]", "result": "2370 nM (inactive)"},
      {"measurement": "GI50", "setting": "[34]", "result": "2460 nM (inactive)"},
      {"measurement": "GI50", "setting": "[35]", "result": "2620 nM (inactive)"},
      {"measurement": "GI50", "setting": "[36]", "result": "1860 nM (inactive)"},
      {"measurement": "GI50", "setting": "[37]", "result": "2030 nM (inactive)"},
      {"measurement": "GI50", "setting": "[38]", "result": "1880 nM (inactive)"},
      {"measurement": "GI50", "setting": "[39]", "result": "1860 nM (inactive)"},
      {"measurement": "GI50", "setting": "[40]", "result": "2570 nM (inactive)"},
      {"measurement": "GI50", "setting": "[41]", "result": "3390 nM (inactive)"},
      {"measurement": "GI50", "setting": "[42]", "result": "4630 nM (inactive)"},
      {"measurement": "GI50", "setting": "[43]", "result": "1880 nM (inactive)"},
      {"measurement": "GI50", "setting": "[44]", "result": "3090 nM (inactive)"},
      {"measurement": "GI50", "setting": "[45]", "result": "1660 nM (inactive)"},
      {"measurement": "GI50", "setting": "[46]", "result": "2970 nM (inactive)"},
      {"measurement": "GI50", "setting": "[47]", "result": "6460 nM (inactive)"},
      {"measurement": "GI50", "setting": "[48]", "result": "1810 nM (inactive)"},
      {"measurement": "GI50", "setting": "[49]", "result": "10600 nM (inactive)"},
      {"measurement": "GI50", "setting": "[50]", "result": "2860 nM (inactive)"},
      {"measurement": "GI50", "setting": "[51]", "result": "2280 nM (inactive)"},
      {"measurement": "GI50", "setting": "[52]", "result": "2850 nM (inactive)"},
      {"measurement": "GI50", "setting": "[53]", "result": "2670 nM (inactive)"},
      {"measurement": "GI50", "setting": "[54]", "result": "8180 nM (inactive)"},
      {"measurement": "GI50", "setting": "[55]", "result": "1670 nM (inactive)"},
      {"measurement": "GI50", "setting": "[56]", "result": "2450 nM (inactive)"},
      {"measurement": "GI50", "setting": "[57]", "result": "1740 nM (inactive)"},
      {"measurement": "GI50", "setting": "[58]", "result": "11000 nM (inactive)"},
      {"measurement": "GI50", "setting": "[59]", "result": "1450 nM (inactive)"}
    ]}
  ]
}
